# Assay results published in ChEMBL document CHEMBL1201862, “PubChem BioAssay data set” (2004).
# The source made the active and inactive calls.
# Assays:
# [1] = A cytotoxicity screen of small molecule inhibitors of the PhoP region in Salmonella typhi identified in the primary screen. [Related pubchem assays: 1850, 1864, 1985 ]; format: functional
# Cytochrome P450 3A4 = Cytochrome P450 3A4 (Homo sapiens, UniProt P08684); settings: Potency;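 also: confirmatory qHTS run detecting inhibitors and substrates of CYP3A4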
# [2] = blockers of HIV-1 envelope-mediated cell-cell fusion – cherry-pick, dose response (AID 652057); format: functional, cell-based
# [3] = blockers of HIV-1 ZM109 envelope-driven cell-cell fusion – HeLa effector, CEM target cells, luciferase, cherry-pick, dose response (AID 652058); format: functional, cell-based;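 also: luciferase signal from HIV-1 Env mediated cell-cell fusion of effector and target cells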
# [4] = HIV-1 AD8 envelope cell-cell fusion blockers – cherry-pick, dose response (AID 652062); format: functional, cell-based;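 also: luciferase signal from cell-cell fusion driven by HIV-1 clade B AD8 Env; potency is for inhibitors of fusion seen as a drop in luminescence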
# [5] = NIH3T3 cell viability loss – ATP luminescence, mouse fibroblasts, counter-screen, dose response (AID 2010); format: functional, cell-based;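 also: cells exposed to compound for about 90 hours before reading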
# [6] = NIH-3T3 fibroblast cytotoxicity, dose response, cytotoxicity control, cell-based, fluorescence, Alamar Blue, secondary assay (AID 2327); format: functional;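 also: NIH-3T3 mouse fibroblasts cultured with fluconazole at 8 µg/mL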
# [7] = fluconazole-exposed Candida albicans growth modulators – fluorescence, retest, confirmation (AID 2467); format: functional, cell-based
# [8] = Trypanosoma cruzi growth suppression in host cells – NIH3T3 host cells, beta-gal luminescence, confirmation (AID 2044); format: functional, cell-based;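 also: intracellular parasites grown in NIH/3T3 mouse fibroblasts as host cells; luminescent beta-galactosidase reporter signal from transgenic T. cruzi replicating inside host cells; inhibitors lower the luminescence signal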
# [9] = reduction of Shn3 3'UTR-driven luciferase in osteoblasts – cell-based, Clone20 osteoblasts, firefly luciferase, cherry-picked, dose response (AID 624132); format: functional;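 also: firefly luciferase luminescence from reporter carrying the Shn3 3'UTR in osteoblasts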
# [10] = non-specific 3'UTR reporter inhibition in Clone20-Shn3RL – cell-based, Renilla luciferase, cherry-picked, counter-screen for Shn3 inhibitor project, dose response (AID 624133); format: functional
# INS1 = test: INS-1E survival protection against cytokine death – cell-based, luminescence, retest, dose response (AID 449756); format: functional; settings: Rattus norvegicus;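 also: cell death triggered by IL-1 beta plus TNF-alpha plus IFN-gamma mixture; protective hits raise ATP signal compared with cytokine alone wells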
# [11] = loss of viability in HepG2 cells – cell-based, CellTiter-Glo, cherry-picked, cytotoxicity control for Shn3 inhibitor project, dose response (AID 624134); format: functional
# BJ [12] = test: BJ-TERT-LT-ST fibroblast viability loss – cell-based, RAS-independent, luminescence, dose response (AID 1935); format: functional; settings: Homo sapiens;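 also: BJ fibroblasts immortalized with TERT plus LT and ST oncogenes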
# BJ [13] = test: cells; format: functional, cell-based; settings: Homo sapiens
# [14] = Luminescence Cell-Based Dose Confirmation HTS to Identify Inhibitors of Platelet Dense Granule Release. [Related pubchem assays: 1663 (Primary HTS), 1678 (Summary of Project)]; format: functional
# BJ [15] = test: BJ-TERT fibroblast viability loss – cell-based, RAS-independent, luminescence, dose response (AID 1933); format: functional; settings: Homo sapiens
# [16] = DRD fibroblast viability loss – cell-based, non-viral oncogenic, luminescence, dose response (AID 1934); format: functional; settings: Homo sapiens
# [17] = target: Luciferin 4-monooxygenase (Photinus pyralis, UniProt P08659); test: inhibition of purified Photinus pyralis luciferase – biochemical, luminescence, dose response (AID 1891)
# [18] = toxicity to human hepatoma HepG2 cells – cell-based, cherry-picked samples, cytotoxicity control, dose response (AID 1159577); format: functional
# [19] = P. falciparum Dd2 growth inhibitors, dose response, SYBR Green, cherry-picked samples (AID 1159567); format: functional, cell-based
# Estrogen receptor = target: T1, Estrogen receptor (Homo sapiens, UniProt P03372);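 also: potency for inhibiting coactivator peptide recruitment to the receptor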
# T1 sequence (P03372 whole entry): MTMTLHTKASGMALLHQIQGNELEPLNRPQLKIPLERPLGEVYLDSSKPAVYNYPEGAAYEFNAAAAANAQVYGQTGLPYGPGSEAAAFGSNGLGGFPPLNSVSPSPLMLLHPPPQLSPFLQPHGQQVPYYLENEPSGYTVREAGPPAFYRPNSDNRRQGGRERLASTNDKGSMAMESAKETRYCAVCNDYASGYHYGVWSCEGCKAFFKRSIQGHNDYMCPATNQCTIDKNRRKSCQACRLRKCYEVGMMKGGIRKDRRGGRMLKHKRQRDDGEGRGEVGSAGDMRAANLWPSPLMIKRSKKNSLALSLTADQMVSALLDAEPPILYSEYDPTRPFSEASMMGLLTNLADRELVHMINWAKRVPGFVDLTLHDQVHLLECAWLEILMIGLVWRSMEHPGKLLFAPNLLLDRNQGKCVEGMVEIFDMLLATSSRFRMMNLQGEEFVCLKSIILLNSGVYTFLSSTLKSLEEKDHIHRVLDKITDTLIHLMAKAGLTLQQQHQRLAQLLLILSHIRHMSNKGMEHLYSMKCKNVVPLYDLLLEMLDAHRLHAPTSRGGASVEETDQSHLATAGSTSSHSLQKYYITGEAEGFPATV
# Estrogen receptor beta = Estrogen receptor beta (Homo sapiens, UniProt Q92731); test: blockers of SRC-3 recruitment to ERβ – biochemical, ELISA, streptavidin-HRP readout, orthogonal assay, confirmation (AID 1060)
# Estrogen receptor beta, sequence (Q92731 whole entry): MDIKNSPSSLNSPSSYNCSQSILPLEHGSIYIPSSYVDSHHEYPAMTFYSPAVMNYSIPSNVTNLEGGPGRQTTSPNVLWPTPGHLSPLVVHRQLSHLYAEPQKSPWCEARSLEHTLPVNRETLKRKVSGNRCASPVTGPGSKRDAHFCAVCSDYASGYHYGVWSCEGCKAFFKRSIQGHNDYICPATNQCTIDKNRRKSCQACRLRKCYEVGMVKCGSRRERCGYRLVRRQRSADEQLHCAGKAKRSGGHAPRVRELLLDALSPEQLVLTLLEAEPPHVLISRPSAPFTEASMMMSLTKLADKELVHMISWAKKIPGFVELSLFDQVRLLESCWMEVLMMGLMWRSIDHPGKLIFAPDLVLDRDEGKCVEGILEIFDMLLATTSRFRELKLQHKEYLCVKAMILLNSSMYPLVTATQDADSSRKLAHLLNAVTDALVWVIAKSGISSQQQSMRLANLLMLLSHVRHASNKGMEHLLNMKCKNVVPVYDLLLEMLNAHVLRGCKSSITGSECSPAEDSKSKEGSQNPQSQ
# Luciferin 4-monooxygenase, sequence (P08659 whole entry): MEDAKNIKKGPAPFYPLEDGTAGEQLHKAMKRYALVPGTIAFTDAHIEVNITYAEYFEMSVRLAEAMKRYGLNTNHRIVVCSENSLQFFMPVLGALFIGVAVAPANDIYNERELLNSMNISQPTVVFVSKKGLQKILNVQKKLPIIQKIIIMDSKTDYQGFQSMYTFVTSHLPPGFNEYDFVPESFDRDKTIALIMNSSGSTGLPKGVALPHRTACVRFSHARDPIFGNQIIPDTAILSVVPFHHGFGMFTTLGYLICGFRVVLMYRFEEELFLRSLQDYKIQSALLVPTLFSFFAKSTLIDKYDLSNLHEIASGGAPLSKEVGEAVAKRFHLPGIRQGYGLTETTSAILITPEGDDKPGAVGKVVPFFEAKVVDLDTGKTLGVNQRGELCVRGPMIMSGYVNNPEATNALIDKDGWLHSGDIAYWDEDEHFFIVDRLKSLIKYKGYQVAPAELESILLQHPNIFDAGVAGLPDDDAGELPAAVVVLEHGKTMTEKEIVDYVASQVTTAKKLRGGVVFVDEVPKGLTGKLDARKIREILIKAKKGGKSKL
# Cytochrome P450 3A4, sequence (P08684 whole entry, the tested form may be a part): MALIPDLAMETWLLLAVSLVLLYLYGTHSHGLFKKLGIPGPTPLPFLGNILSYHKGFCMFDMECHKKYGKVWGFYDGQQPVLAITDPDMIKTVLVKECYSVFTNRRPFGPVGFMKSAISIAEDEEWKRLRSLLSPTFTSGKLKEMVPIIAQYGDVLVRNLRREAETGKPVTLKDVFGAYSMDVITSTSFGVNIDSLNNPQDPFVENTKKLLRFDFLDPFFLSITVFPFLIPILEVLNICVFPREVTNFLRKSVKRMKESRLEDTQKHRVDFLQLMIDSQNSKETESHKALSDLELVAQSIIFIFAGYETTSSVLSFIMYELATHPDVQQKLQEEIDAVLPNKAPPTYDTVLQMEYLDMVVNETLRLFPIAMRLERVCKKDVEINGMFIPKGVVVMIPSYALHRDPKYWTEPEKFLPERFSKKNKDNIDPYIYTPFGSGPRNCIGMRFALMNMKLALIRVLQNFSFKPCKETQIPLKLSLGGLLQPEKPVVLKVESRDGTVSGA
structure (smiles),measurement,setting,value
Clc1ccc(CNCc2cccs2)cc1Cl,EC50,[1],> 50 µM (active)
COc1c2ccoc2nc2c(OC)c(OCC(O)C(C)(C)O)ccc12 (centres undefined) [EVOXINE],AC50,Cytochrome P450 3A4,15.8 µM (inconclusive)
COC1C=CC23c4cc5c(cc4CN(CC2O)C3C1)OCO5 (centres undefined),AC50,Cytochrome P450 3A4,39.8 µM (inconclusive)
COc1ccccc1NC(=O)N[C@@H]1CC[C@H](CC(=O)N[C@H](C)c2ccccc2)O[C@@H]1CO,AC50,[2],0.97 µM (active)
same,AC50,[3],< 0.26 µM (active)
same,AC50,[4],2.61 µM (active)
Cc1ccc(CC(=O)Nc2ncc([N+](=O)[O-])s2)cc1,EC50,[5],> 30 µM (not active)
same,EC50,[1],> 50 µM (active)
same,EC50,[6],37.3 µM (active)
same,EC50,[7],0.033 µM (active)
same,EC50,[8],0.687 µM (active)
Cc1ccc(C(=O)Nc2cccc3[nH]c(C(F)(F)F)nc23)cc1,AC50,[9],3.93 µM (active)
same,AC50,[10],10.3 µM (active)
same,AC50,INS1,7.25 µM (active)
same,AC50,[11],33.6 µM (active)
C[C@H](CO)N1C[C@H](C)[C@@H](CN(C)C(=O)Nc2cccc3ccccc23)OCCCC[C@H](C)Oc2ccc(N(C)C)cc2C1=O,AC50,[3],24.8 µM (active)
COc1cccc2oc(-c3ccccc3)cc(=O)c12,AC50,Cytochrome P450 3A4,31.6 µM (inconclusive)
COC(=O)c1ccc(C(/C=C/[C@@H](C)C(=O)N(C)C)NC(=O)OCc2ccccc2)cc1 (some centres undefined),AC50,Cytochrome P450 3A4,10 µM (inconclusive)
CC1(C)CC[C@]2(C(=O)O)CC[C@@]3(C)C(=CCC4[C@@]5(C)CCC(O)[C@@](C)(CO)C5CC[C@@]43C)C2C1 (some centres undefined),AC50,Cytochrome P450 3A4,12.6 µM (inconclusive)
C/C(=N\NC(=O)COc1ccccc1[N+](=O)[O-])c1cccs1,EC50,[1],> 50 µM (active)
COc1cc(SC)ccc1C(=O)NNC(=O)c1cc(C)oc1C,EC50,BJ [12],18.2 µM (active)
same,EC50,BJ [13],6.06 µM (active)
same,EC50,[14],8.87 µM (active)
same,EC50,BJ [15],3.71 µM (inconclusive)
same,EC50,[16],3.82 µM (active)
same,EC50,[17],1.4 µM (active)
C=CCn1c(O)c(N=NC(=O)c2cccnc2)c2cc(Br)ccc21,EC50,[1],> 50 µM (active)
COc1cccc(CN2CC3(CCN(CC4CC4)CC3)c3c([nH]c4cc(OC)ccc34)[C@H]2CO)c1,AC50,[18],19.7 µM (active)
same,AC50,[19],5 µM (active)
O=C(NCN1CCN(c2ccccn2)CC1)c1cnccn1,EC50,[14],> 112 µM (not active)
same,EC50,[17],> 112 µM (not active)
CC(C)N(C[C@H]1N[C@H](CO)[C@@H]1c1ccc(C2=CCCC2)cc1)C(=O)CN(C)C,AC50,[18],> 39 µM (inactive)
same,AC50,[19],5.21 µM (active)
O=C(Nc1cccnc1)c1cc(Br)c(Br)s1,EC50,[1],> 50 µM (active)
COC(=O)c1c(C)cc(O)cc1O [METHYL ORSELLINATE],AC50,Cytochrome P450 3A4,12.6 µM (inconclusive)
COc1ccccc1-c1c(C(F)(F)F)n[nH]c1-c1ccc(O)cc1O,AC50,[9],0.708 µM (active)
same,AC50,[10],1.42 µM (active)
same,AC50,[11],> 70 µM (inactive)
same,AC50,[3],0.97 µM (active)
same,AC50,[4],19 µM (active)
COc1ccc(C#Cc2ccc([C@@H]3[C@H](CO)N4CCCCN(Cc5ccncc5)C[C@@H]34)cc2)cc1,AC50,[18],13.6 µM (active)
same,AC50,[19],0.949 µM (active)
O=C1NC(=O)C2(CCC(C(=O)O)C2)N1 (centres undefined),EC50,[14],> 112 µM (not active)
same,EC50,[17],> 112 µM (not active)
CCOC(=O)c1cc2cc([N+](=O)[O-])ccc2oc1=O,EC50,[14],> 112 µM (not active)
same,EC50,[17],> 112 µM (not active)
CCOC(=O)C1CCCN(C(=O)c2cc3ncc(Br)cn3n2)C1 (centres undefined),IC50,Estrogen receptor,20.7 µM (active)
same,IC50,Estrogen receptor beta,0.0694 µM (not active)
COc1ccc(NC(=O)c2cc(-c3ccc(C)o3)nc3ccccc23)cc1OC,IC50,Estrogen receptor beta,24.7 µM (not active)
C[C@@H]1CN([C@H](C)CO)S(=O)(=O)c2ccc(/C=C/c3ccccc3)cc2O[C@H]1CN(C)Cc1cccnc1,AC50,[18],19.7 µM (active)
same,AC50,[19],3.7 µM (active)
C[C@H](CO)N1C[C@H](C)[C@H](CN(C)S(=O)(=O)c2ccc(Cl)cc2)Oc2ccc(NC(=O)C3CCCCC3)cc2CC1=O,AC50,[2],1.36 µM (active)
same,AC50,[3],2.13 µM (active)
same,AC50,[4],20.1 µM (active)
